Earlier results on one compound are cited in patent US11980186B2, “Preparation method of eucalyptol emulsion and application thereof in biopesticides” (Jiangnan University, priority 2021, dated 2024).

≈ marks a conversion by molar mass, not a printed value.

The test system of this series is B. tabaci. The conditions noted are these: literature value.

Consider `O=C1CCC[C@@H]2[C@H]3CCCN4CCC[C@@H](CN12)[C@@H]34` [matrine], for which the “LC50 against the B. tabaci” value was 13.35 µg/mL (≈ 53.8 µM).
